Where “and” joins values, the source holds several entries; their conditions need not be identical. Equal entries are not always repeated.
How the values were obtained:
Test in all cases: Greenhouse postemergence herbicidal effect (visual injury, 20-22 d)
Assay type in all cases: in vivo
[1] = system: STEME, Stellaria media (chickweed); settings: STEME, Compound A 10 g/ha
In short: (§1)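 Seedlings reach 2nd/3rd true leaf in greenhouse; two- or three-way mixes (pyridine carboxylate with cloquintocet-mexyl, PS-II inhibitor, optional HPPD inhibitor) in 1.25% v/v oil adjuvant are sprayed overhead at 187 L/ha. Plants are sub-irrigated, then injury versus blank controls is rated 0–100% at 20-22 d.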

[2] = system: BRSNN, Brassica napus (spring rape)
In short: as §1

[3] = system: RUMOB, Rumex obtusifolius (broad-leaf dock); settings: Compound A 10 g/ha
[4] = system: KCHSC, Kochia scoparia (kochia)
[5] = system: SASKR, Salsola kali (Russian thistle)
In short: as §1

[6] = system: ALOMY, Alopecurus myosuroides (blackgrass)
[7] = system: HELAN, Helianthus annuus (common sunflower); settings: Compound A 10 g/ha, without cloquintocet-mexyl safener
[8] = system: SETFA, Setaria faberi (giant foxtail); settings: SETFA, Compound A 10 g/ha
In short: as §1

[9] = system: ABUTH, Abutilon theophrasti (velvetleaf); settings: for % visual injury, Obs: ABUTH, Compound A 10 g/ha
[10] = system: DIGSA, Digitaria sanguinalis (large crabgrass); settings: Compound A 10 g/ha, without cloquintocet-mexyl safener
[11] = system: LOLMU, Lolium multiflorum (Italian ryegrass); settings: Compound A 10 g/ha, without cloquintocet-mexyl safener
[12] = without cloquintocet-mexyl safener

N#CCOC(=O)c1nc(-c2ccc3cc[nH]c3c2F)c(F)c(N)c1Cl [Compound A, cyanomethyl 4-amino-3-chloro-5-fluoro-6-(7-fluoro-1H-indol-6-yl)pyridine-2-carboxylate]
% visual injury, Obs [1]: 90% | % visual injury, Obs [1, 12]: 88% | visual injury ([2]; 10 g ae/ha alone): 60% and 45% and 73% | % visual injury, Obs ([2]; BRSNN, Compound A 10 g/ha): 65% | % visual injury, Obs [3]: 13% | % visual injury, Obs [3, 12]: 35% | visual injury ([4]; 7.5 g ae/ha alone): 63% and 50% and 65% and 70% | visual injury ([4]; 10 g ae/ha alone): 63% and 58% and 70% | % visual injury, Obs ([4]; KCHSC, Compound A 10 g/ha, without cloquintocet-mexyl safener): 88% | visual injury ([5]; 7.5 g ae/ha alone): 60% and 45% | visual injury ([5]; 10 g ae/ha alone): 63% and 60% | visual injury ([6]; 7.5 g ae/ha alone): 0% | visual injury ([6]; 10 g ae/ha alone): 0% | % visual injury, Obs ([6]; ALOMY, Compound A 10 g/ha, without cloquintocet-mexyl safener): 0% | % visual injury, Obs [7]: 100% | % visual injury, Obs [8]: 80% | % visual injury, Obs [8, 12]: 0% | visual injury ([9]; 7.5 g ae/ha alone): 68% | visual injury ([9]; 10 g ae/ha alone): 80% | % visual injury, Obs [9]: 80% | % visual injury, Obs [9, 12]: 75% | % visual injury, Obs [10]: 8% | % visual injury, Obs [11]: 0%
